From the NIST ThermoML archive (doi:10.1021/je1007197)

Experiment: xn = mol fraction of the nth substance listed
Details: Liquid, Hot wire method

CCCCOCCO [2-butoxyethan-1-ol] + O
Details | thermal conductivity [W/m/K]
304.15 K, 100 kPa, x1 = 0.0478 | 0.4533
304.15 K, 100 kPa, x1 = 0.1732 | 0.2813
304.15 K, 100 kPa, x1 = 0.5 | 0.1837
304.15 K, 100 kPa, x1 = 0.75 | 0.1655
304.15 K, 10300 kPa, x1 = 0.5 | 0.1877
304.15 K, 10300 kPa, x1 = 0.75 | 0.169
304.15 K, 14200 kPa, x1 = 0.0478 | 0.4568
304.15 K, 15000 kPa, x1 = 0.5 | 0.189
304.15 K, 19300 kPa, x1 = 0.75 | 0.1717
304.15 K, 20300 kPa, x1 = 0.1732 | 0.2857
304.15 K, 26700 kPa, x1 = 0.5 | 0.1936
304.15 K, 27300 kPa, x1 = 0.0478 | 0.4622
304.15 K, 30000 kPa, x1 = 0.1732 | 0.2896
304.15 K, 39500 kPa, x1 = 0.75 | 0.1771
304.15 K, 41800 kPa, x1 = 0.0478 | 0.468
304.15 K, 41800 kPa, x1 = 0.5 | 0.1963
304.15 K, 47200 kPa, x1 = 0.1732 | 0.2942
304.15 K, 54700 kPa, x1 = 0.5 | 0.1995
304.15 K, 54700 kPa, x1 = 0.75 | 0.1812
304.15 K, 55400 kPa, x1 = 0.0478 | 0.4704
304.15 K, 70100 kPa, x1 = 0.0478 | 0.4758
304.15 K, 70200 kPa, x1 = 0.1732 | 0.3008
304.15 K, 70200 kPa, x1 = 0.5 | 0.2032
304.15 K, 76500 kPa, x1 = 0.75 | 0.1862
304.15 K, 83900 kPa, x1 = 0.0478 | 0.478
304.15 K, 84200 kPa, x1 = 0.1732 | 0.3043
304.15 K, 84200 kPa, x1 = 0.5 | 0.2066
304.15 K, 91200 kPa, x1 = 0.75 | 0.19
304.15 K, 98200 kPa, x1 = 0.0478 | 0.4845
304.15 K, 98200 kPa, x1 = 0.1732 | 0.3077
304.15 K, 98200 kPa, x1 = 0.75 | 0.1901
304.15 K, 108700 kPa, x1 = 0.5 | 0.2127
304.15 K, 110400 kPa, x1 = 0.1732 | 0.311
304.15 K, 112100 kPa, x1 = 0.0478 | 0.4875
304.15 K, 112200 kPa, x1 = 0.75 | 0.1951
304.15 K, 124800 kPa, x1 = 0.5 | 0.2157
304.15 K, 126000 kPa, x1 = 0.0478 | 0.4917
304.15 K, 126200 kPa, x1 = 0.1732 | 0.3147
304.15 K, 127600 kPa, x1 = 0.75 | 0.1976
304.15 K, 138700 kPa, x1 = 0.0478 | 0.4958
304.15 K, 140100 kPa, x1 = 0.1732 | 0.3175
304.15 K, 140100 kPa, x1 = 0.5 | 0.2189
304.15 K, 140100 kPa, x1 = 0.75 | 0.2005
304.15 K, 150600 kPa, x1 = 0.1732 | 0.3195
304.15 K, 150600 kPa, x1 = 0.75 | 0.2022
317.15 K, 100 kPa, x1 = 0.0478 | 0.4606
317.15 K, 16400 kPa, x1 = 0.0478 | 0.4669
317.15 K, 25500 kPa, x1 = 0.0478 | 0.4697
317.15 K, 41800 kPa, x1 = 0.0478 | 0.475
317.15 K, 56100 kPa, x1 = 0.0478 | 0.4789
317.15 K, 70600 kPa, x1 = 0.0478 | 0.485
317.15 K, 84200 kPa, x1 = 0.0478 | 0.4875
317.15 K, 98200 kPa, x1 = 0.0478 | 0.4926
317.15 K, 112200 kPa, x1 = 0.0478 | 0.4983
317.15 K, 124000 kPa, x1 = 0.0478 | 0.5008
317.15 K, 141000 kPa, x1 = 0.0478 | 0.5066
320.9 K, 100 kPa, x1 = 0.0478 | 0.4774
320.9 K, 2300 kPa, x1 = 0.0478 | 0.4714
320.9 K, 5000 kPa, x1 = 0.0478 | 0.4639
320.9 K, 7500 kPa, x1 = 0.0478 | 0.4677
320.9 K, 10000 kPa, x1 = 0.0478 | 0.4694
320.9 K, 12500 kPa, x1 = 0.0478 | 0.4703
320.9 K, 15000 kPa, x1 = 0.0478 | 0.4705
320.9 K, 19500 kPa, x1 = 0.0478 | 0.4737
320.9 K, 20000 kPa, x1 = 0.0478 | 0.4742
320.9 K, 29800 kPa, x1 = 0.0478 | 0.4774
320.9 K, 52500 kPa, x1 = 0.0478 | 0.4855
320.9 K, 70200 kPa, x1 = 0.0478 | 0.4855
320.9 K, 87700 kPa, x1 = 0.0478 | 0.4986
320.9 K, 105200 kPa, x1 = 0.0478 | 0.5044
320.9 K, 126200 kPa, x1 = 0.0478 | 0.5123
321.15 K, 100 kPa, x1 = 0.5 | 0.1829
321.15 K, 100 kPa, x1 = 0.75 | 0.1624
321.15 K, 10000 kPa, x1 = 0.5 | 0.1864
321.15 K, 10000 kPa, x1 = 0.75 | 0.1656
321.15 K, 19300 kPa, x1 = 0.5 | 0.1892
321.15 K, 19300 kPa, x1 = 0.75 | 0.1693
321.15 K, 19700 kPa, x1 = 0.5 | 0.1896
321.15 K, 28300 kPa, x1 = 0.75 | 0.1718
321.15 K, 39300 kPa, x1 = 0.75 | 0.1744
321.15 K, 41800 kPa, x1 = 0.5 | 0.1959
321.15 K, 56100 kPa, x1 = 0.5 | 0.2001
321.15 K, 56100 kPa, x1 = 0.75 | 0.1792
321.15 K, 70200 kPa, x1 = 0.5 | 0.2034
321.15 K, 71600 kPa, x1 = 0.75 | 0.1836
321.15 K, 84200 kPa, x1 = 0.5 | 0.2073
321.15 K, 84200 kPa, x1 = 0.75 | 0.1871
321.15 K, 96500 kPa, x1 = 0.5 | 0.2099
321.15 K, 98900 kPa, x1 = 0.75 | 0.1907
321.15 K, 111500 kPa, x1 = 0.75 | 0.1929
321.15 K, 112200 kPa, x1 = 0.5 | 0.2144
321.15 K, 124800 kPa, x1 = 0.75 | 0.1959
321.15 K, 126900 kPa, x1 = 0.5 | 0.2172
321.15 K, 141500 kPa, x1 = 0.5 | 0.2201
321.15 K, 142200 kPa, x1 = 0.75 | 0.1998
321.15 K, 149900 kPa, x1 = 0.5 | 0.2213
321.15 K, 150600 kPa, x1 = 0.75 | 0.2016
322 K, 100 kPa, x1 = 0.0478 | 0.4932
322 K, 5400 kPa, x1 = 0.0478 | 0.4886
322 K, 20000 kPa, x1 = 0.0478 | 0.4931
322 K, 34600 kPa, x1 = 0.0478 | 0.5006
322 K, 52500 kPa, x1 = 0.0478 | 0.5069
322 K, 70200 kPa, x1 = 0.0478 | 0.5149
322 K, 87700 kPa, x1 = 0.0478 | 0.5221
322 K, 105200 kPa, x1 = 0.0478 | 0.528
322 K, 119200 kPa, x1 = 0.0478 | 0.5322
322 K, 133200 kPa, x1 = 0.0478 | 0.5354
335 K, 100 kPa, x1 = 0.1732 | 0.2804
335 K, 10000 kPa, x1 = 0.1732 | 0.2851
335 K, 19000 kPa, x1 = 0.1732 | 0.2895
335 K, 41800 kPa, x1 = 0.1732 | 0.2972
335 K, 70200 kPa, x1 = 0.1732 | 0.306
335 K, 84200 kPa, x1 = 0.1732 | 0.3077
335 K, 98200 kPa, x1 = 0.1732 | 0.3111
335 K, 112200 kPa, x1 = 0.1732 | 0.3153
335 K, 125500 kPa, x1 = 0.1732 | 0.3205
335 K, 137300 kPa, x1 = 0.1732 | 0.3218
338.15 K, 100 kPa, x1 = 0.5 | 0.1796
338.15 K, 100 kPa, x1 = 0.75 | 0.1594
338.15 K, 10400 kPa, x1 = 0.5 | 0.1841
338.15 K, 11000 kPa, x1 = 0.75 | 0.1637
338.15 K, 19000 kPa, x1 = 0.5 | 0.1866
338.15 K, 19500 kPa, x1 = 0.5 | 0.1867
338.15 K, 19500 kPa, x1 = 0.75 | 0.1663
338.15 K, 30700 kPa, x1 = 0.75 | 0.1702
338.15 K, 39300 kPa, x1 = 0.75 | 0.1723
338.15 K, 41800 kPa, x1 = 0.5 | 0.1936
338.15 K, 56100 kPa, x1 = 0.5 | 0.1986
338.15 K, 56100 kPa, x1 = 0.75 | 0.1767
338.15 K, 70200 kPa, x1 = 0.5 | 0.2018
338.15 K, 70200 kPa, x1 = 0.75 | 0.1812
338.15 K, 80700 kPa, x1 = 0.5 | 0.2039
338.15 K, 91200 kPa, x1 = 0.75 | 0.1868
338.15 K, 98200 kPa, x1 = 0.5 | 0.2083
338.15 K, 105200 kPa, x1 = 0.75 | 0.1907
338.15 K, 112200 kPa, x1 = 0.5 | 0.2118
338.15 K, 117800 kPa, x1 = 0.75 | 0.1924
338.15 K, 126200 kPa, x1 = 0.5 | 0.2146
338.15 K, 131800 kPa, x1 = 0.75 | 0.1964
338.15 K, 140800 kPa, x1 = 0.5 | 0.2183
338.15 K, 147100 kPa, x1 = 0.75 | 0.1997
346.5 K, 100 kPa, x1 = 0.1732 | 0.2659
346.5 K, 10000 kPa, x1 = 0.1732 | 0.2753
346.5 K, 20000 kPa, x1 = 0.1732 | 0.2796
346.5 K, 29500 kPa, x1 = 0.1732 | 0.2834
346.5 K, 49000 kPa, x1 = 0.1732 | 0.2904
346.5 K, 84200 kPa, x1 = 0.1732 | 0.3009
346.5 K, 98200 kPa, x1 = 0.1732 | 0.3029
346.5 K, 112200 kPa, x1 = 0.1732 | 0.3046
346.5 K, 122700 kPa, x1 = 0.1732 | 0.31
346.5 K, 140100 kPa, x1 = 0.1732 | 0.3122
346.5 K, 148500 kPa, x1 = 0.1732 | 0.3128
